In data set [1] the test system is carrageenan-induced rat paw edema. Briefly: Carrageenan-induced rat paw edema test. Particulars: for volume reduction of paw edema in rats (%): vs vehicle-treated group, single oral dose; for paw thickness: mean±SEM, n=8, vehicle 9.55±0.47 mm. The class given is in vivo, Male Wistar rats.
The subject of data set [2] is mechanical allodynia in carrageenan-injected rats. Briefly: Mechanical allodynia (von Frey, up and down method) in rat carrageenan-induced paw edema model. The class given is in vivo, Male Wistar rats. Particulars: 3 h post-carrageenan; ipsilateral paw; n=8; vehicle 8.25±1.61 g, baseline 80±7.56 g.
For data set [3] the following is noted: cited from earlier work.
On the set-up of data set [4]: species or system Sprague Dawley male rat. Particulars: rat, in vivo, po.
From the text: Sprague Dawley male rat (body weights 310 gr at the time of the treatment) were used in this study. The animals were originally supplied by Harlan, Italy. Once receipt from the supplier, the animals were subjected to health examinations and acceptance. The animals were housed, in a group of three, in cages suitable for the species and were routinely kept in the following environment except for short periods of time where experimental procedures dictated otherwise. The animals were acclimatized to local housing conditions for approximately 5 days. The animals were housed in a single, exclusive room, air conditioned to provide a minimum of 15 air changes/hour. The environmental controls were set to maintain temperature within the range 22° C. and relative humidity within the range 50 to 60% with an approximate 12 hour light and 12 hour dark cycle that is controlled automatically. Food (Mucedola Standard GLP diet) and water were available ad libitum throughout the study. All animals were weighed on the day of each treatment. Clinical signs were monitored at regular intervals throughout the study in order to assess any reaction to treatment. Each animal was uniquely identified with a coloured spray on the back before the experiment. At the end of the study animals were sacrificed by exsanguination under anaesthesia. […]

For the compound `CC(C(=O)O)c1ccc(-c2ccccc2)c(F)c1` (stereo not drawn) [Flurbiprofen], the figures for the “volume reduction of paw edema in rats (%)” value (from here on “volume reduction … (%)”) in data set [1] (1 h post-carrageenan), in data set [1] (3 h post-carrageenan) and in data set [1] (5 h post-carrageenan) were −18.20%, −31.50% and −32.0%, respectively. Further, in data set [1] (5 h post-carrageenan), the paw thickness is 6.5±0.28 mm. Moreover, in data set [2], the paw withdrawal threshold came to 44.62 ± 14.43 g.
`NCC1(CC(=O)O)CCCCC1` [Gabapentin]: the figures for the “volume reduction … (%)” value in data set [1] (1 h post-carrageenan), in data set [1] (3 h post-carrageenan) and in data set [1] (5 h post-carrageenan) were −1.93%, −16.21% and −17.27%, respectively. The compound also displayed a paw thickness in data set [1] (5 h post-carrageenan) of 7.45±0.26 mm. Besides, in data set [2], the paw withdrawal threshold was 66.5 ± 11 g. Besides, the “time to utmost level in plasma” value in data set [3] (after oral administration (Quintero 2017)) was 3 to 4 h. Also, the excretion half-life entry in data set [3] (expelled by the renal system) is on record as “roughly 6 hours”.
As for `COc1ccc2c(c1)c(CC(=O)O)c(C)n2C(=O)c1ccc(Cl)cc1` [Indomethacin], the “volume reduction … (%)” value in data set [1] (1 h post-carrageenan) is reported as −17.68%; in data set [1] (3 h post-carrageenan) it was −35.27%; in data set [1] (5 h post-carrageenan), −40.45%. The compound also showed a paw thickness in data set [1] (5 h post-carrageenan) of 5.69±0.27 mm. This compound displayed a paw withdrawal threshold in data set [2] of 36 ± 7.21 g.
Consider “Flurbiprofen-Lysine-Gabapentin [Flur/Lys/Gaba]”, for which the “volume reduction … (%)” value in data set [1] (1 h post-carrageenan) is listed as −21.80%. Also, the “volume reduction … (%)” value in data set [1] (3 h post-carrageenan) is on record as −39.91%. For the same compound, in data set [1] (5 h post-carrageenan), the paw thickness is listed as 5.51±0.42 mm and the “volume reduction … (%)” value was −42.27%. The same compound showed a paw withdrawal threshold in data set [2] of 85.75 ± 9.86 g. For the same compound, in data set [4], the “Cmax (ng/mL) Flurbiprofen” value was 14725 ± 1267 ng/mL and the “Cmax (ng/mL) Gabapentin” value amounted to 3008 ± 246 ng/mL.

The values above are taken from US20250025435A1, “CO-CRYSTALS OF NONSTEROIDAL ANTI-INFLAMMATORY DRUGS, LYSINE AND GABAPENTIN, PHARMACEUTICAL COMPOSITIONS AND THEIR MEDICAL USE” (DOMPE' FARMACEUTICI SPA, priority 2021, published 2025).
